Data reported in PMC6792352, “Limited Chemical Structural Diversity Found to Modulate Thyroid Hormone Receptor in the Tox21 Chemical Library” (Environmental Health Perspectives, 2019).
Structures can show the parent of a compound that is named as a salt.

test: in vitro; conditions: rat, gh3-tre-luc cells, AC50 (uM) modified / 1000

SMILES	CC50 at 24 h [µM]
CCCOC(OCCC)OCCC [Tripropyl orthoformate]	> 90
Cn1nnnc1SCC1=C(C(=O)O)N2C(=O)[C@@H](NC(=O)[C@H](OC=O)c3ccccc3)[C@H]2SC1 [Cefamandole nafate]	> 50
COC(=O)CCC(=O)OC [Dimethyl succinate]	> 90
CCN1CCC2(CC1)COc1cc3c(cc12)N(C(=O)c1ccc(-c2ccc(-c4nnc(C)o4)cc2C)cc1)CC3 [SB236057A]	3
C1CCc2nnnn2CC1 [Pentylenetetrazol]	> 50
C[C@@H](O)[C@H]1C(=O)N2C(C(=O)O)=C(S[C@@H]3CN[C@H](C(=O)N(C)C)C3)[C@H](C)[C@H]12 [Meropenem]	> 50
c1ccc2nccnc2c1 [Quinoxaline]	> 90
COC(=O)C(CN)c1c[nH]c2ccc(OC)cc12 (stereo not shown) [Indorenate hydrochloride]	> 50
CCC(COC(=O)CCS)(COC(=O)CCS)COC(=O)CCS [2,2-Bis{[(3-sulfanylpropanoyl)oxy]methyl}butyl 3-sulfanylpropanoate]	> 90
Nc1ccc2cc3ccc(N)cc3nc2c1 [Proflavin hydrochloride]	> 90
Nc1cccc(N)c1 [1,3-Benzenediamine dihydrochloride]	> 90
O=C1C=CC(=O)C=C1 [1,4-Benzoquinone]	> 90
Nc1ccc(Oc2ccc(N)cc2)cc1 [4,4'-Oxydianiline]	> 90
CC(=O)c1sc(C)nc1C [5-Acetyl-2,4-dimethylthiazole]	> 90
C=CC(C)(O)CCCC(C)CCCC(C)CCCC(C)C (stereo not shown) [Isophytol]	> 90
CC1=C(/C=C/C(C)=C/C=C/C(C)=C/C=C/C=C(C)/C=C/C=C(C)/C=C/C2=C(C)C(=O)CCC2(C)C)C(C)(C)CCC1=O [Canthaxanthin]	> 50
c1ccc(CCc2ccccc2)cc1 [Bibenzyl]	> 90
Cc1cccc(C)c1NC(=O)CN1CCN(CCCC(c2ccc(F)cc2)c2ccc(F)cc2)CC1 [Lidoflazine]	11.6
CC1=C(C(=O)OC(C)C)C(c2cccc([N+](=O)[O-])c2)C(C(=O)OC2CN(C(c3ccccc3)c3ccccc3)C2)=C(N)N1 (stereo not shown) [Azelnidipine]	4.41
OCc1c[nH]c2ccccc12 [Indole-3-carbinol]	> 90
O=C(O)c1ccccc1C(c1ccc(O)cc1)c1ccc(O)cc1 [Phenolphthalin]	> 90
CN1CCC(=C2c3ccccc3CC(=O)c3sccc32)CC1 [Ketotifen]	16

SMILES	CC50 at 24 h [µM]
CNC(=O)N(c1ccccc1)c1ccccc1 [N'-Methyl-N,N-diphenylurea]	> 90
CCC1(c2ccccc2)C(=O)NC(=O)NC1=O [Phenobarbital]	> 90
Nc1ccc(S(=O)(=O)O)cc1 [Sodium sulfanilate]	> 90
COC(C)(C)CCCC(C)C/C=C/C(C)=C/C(=O)OC(C)C (stereo not shown) [Methoprene]	> 90
C[C]1([Mn](=[C]=O)(=[C]=O)=[C]=O)C=CC=C1 [(Methylcyclopentadienyl)tricarbonylmanganese]	> 90
CN1CCC[C@H]1c1cccnc1 [Nicotine]	> 90
CCCCCCCCCC#N [Decanenitrile]	> 90
CC(=O)Nc1ccc(C(=O)O)cc1 [4-Acetamidobenzoic acid]	> 90
CC[C@H]1CC[C@H](NCc2cc3c(cc2OC)[C@H]2C[C@H]2C(=O)N3C)[C@H](c2ccccc2)N1 [CP-728663]	35.3
CCOc1nc2cccc(C(=O)OC(C)OC(=O)OC3CCCCC3)c2n1Cc1ccc(-c2ccccc2-c2nnn[nH]2)cc1 (stereo not shown) [Candesartan cilexetil]	31.1
COc1ccc(/C=C/C(=O)OCCC(C)C)cc1 [Amiloxate]	> 50
O=C(O)CNC(=O)CNC(=O)CNC(=O)CSC(=O)c1ccccc1 [Betiatide]	> 50
O=[N+]([O-])c1nccn1CO[C@@H](CO)[C@H](O)CO [Doranidazole]	> 50
CC(CN(C)C)CN1c2ccccc2Sc2ccccc21 (stereo not shown) [Trimeprazine tartrate]	4.36
O=C(OCCO)c1ccccc1O [2-Hydroxyethyl salicylate]	> 50
Cc1ccccc1CCl [1-(Chloromethyl)-2-methylbenzene]	> 90
C#C[C@]1(O)C=C[C@H]2[C@@H]3CCC4=CC(=O)CC[C@@H]4[C@H]3CC[C@@]21CC [Gestodene]	> 50
c1ccc2c(CC3=NCCN3)cccc2c1 [Naphazoline hydrochloride]	> 50
O=C(OCCc1ccccc1)c1ccccc1 [2-Phenylethyl benzoate]	> 90
CC[C@]1(O)C[C@H]2CN(CCc3c([nH]c4ccccc34)[C@@](C(=O)OC)(c3cc4c(cc3OC)N(C)[C@H]3[C@@](O)(C(N)=O)[C@H](O)[C@]5(CC)C=CCN6CC[C@]43[C@@H]65)C2)C1 [Vindesine sulfate salt]	0.425
CCOC(=O)c1c(C)n(C)c2ccc(O)cc12 [Mecarbinate]	> 50
CCCCCCCCCCCCCCCC(=O)NCCO [Palmitoylethanolamide]	> 50

SMILES	CC50 at 24 h [µM]
C[C@H]1O[C@@H](O[C@H]2[C@@H](O)C[C@H](O[C@H]3[C@@H](O)C[C@H](O[C@H]4CC[C@@]5(C)[C@H](CC[C@@H]6[C@@H]5CC[C@]5(C)[C@@H](C7=CC(=O)OC7)CC[C@]65O)C4)O[C@@H]3C)O[C@@H]2C)C[C@H](O)[C@@H]1O [Digitoxin]	> 60
CC(C)CN(C[C@@H](O)[C@H](Cc1ccccc1)NC(=O)O[C@H]1CCOC1)S(=O)(=O)c1ccc(N)cc1 [Amprenavir]	> 50
NC1CCC(CC2CCC(N)CC2)CC1 (stereo not shown) [4,4'-Diaminodicyclohexylmethane]	> 90
CC(C)C[C@H](NC(=O)OCC1c2ccccc2-c2ccccc21)C(=O)O [N-(9-Fluorenylmethoxycarbonyl)-L-leucine]	> 90
Cc1ccc(S(=O)(=O)NC2CCCCC2)cc1 [N-Cyclohexyl-4-methylbenzenesulfonamide]	> 90
Nc1nc(N)c2nc(CNc3ccc(C(=O)N[C@@H](CCC(=O)O)C(=O)O)cc3)cnc2n1 [4-Aminofolic acid]	> 50
C=CCCCCCCCCCCC [1-Tridecene]	> 5
Cc1ccc(O)c(N)c1 [2-Amino-4-methylphenol]	33.5
Cn1nnnc1SCC1=C(C(=O)O)N2C(=O)[C@@H](NC(=O)[C@H](O)c3ccccc3)[C@H]2SC1 [Cefamandole sodium]	> 20
COc1cc2c(cc1N)oc1ccccc12 [2-Methoxy-3-aminodibenzofuran]	> 90
COc1ccc(NS(=O)(=O)c2ccc(N)cc2)nn1 [Sulfamethoxypyridazine]	> 20
CN1[C@@H]2CC[C@H]1C[C@@H](OC(c1ccccc1)c1ccc(Cl)cc1)C2 (stereo partly shown) [Clobenztropine]	5.13
O=C(O)Cn1c(=O)n(Cc2ccc(Br)cc2F)c(=O)c2ccc(Cl)cc21 [Zenarestat]	> 90
CCCOCC(C)O (stereo not shown) [1-Propoxy-2-propanol]	> 90
Cc1c(C)c([N+](=O)[O-])c(C(C)(C)C)c([N+](=O)[O-])c1C [1-tert-Butyl-3,4,5-trimethyl-2,6-dinitrobenzene]	73.9
O=S(=O)(O)C(F)(F)F [Trifluoromethanesulfonic acid]	> 90
CC(C)=CCCC(C)CCOC=O (stereo not shown) [3,7-Dimethyloct-6-en-1-yl formate]	> 90
CC(C)C[C@@H](N)C(=O)O [D-Leucine]	> 50
C=C(C)C(=O)OCC [Ethyl methacrylate]	> 100
CC[C@H](NC(=O)c1cc(F)ccc1NS(=O)(=O)c1cccc2cccnc12)c1ccccc1 [AVE3295]	> 90
CC1CCN(CCCC(=O)c2ccc(F)cc2)CC1 [Methylperone]	> 50
C=CC(=O)OCCN(C)C [2-(Dimethylamino)ethyl acrylate]	> 90

same assay, conditions: rat, gh3-tre-luc cells, AC50 (uM) modified / 1000, Tox21_110001=Tox21_110993; viability, 1 nM T3 present, 24 h

SMILES	CC50 at 24 h [µM]
COP(=S)(OC)SCN1C(=O)c2ccccc2C1=O [Phosmet]	> 50

same assay, conditions: rat, gh3-tre-luc cells, AC50 (uM) modified / 1000, Tox21_110001=Tox21_200336; viability, 1 nM T3 present, 24 h

SMILES	CC50 at 24 h [µM]
CC(C)(Cl)[N+](=O)[O-] [2-Chloro-2-nitropropane]	> 90

same assay, conditions: rat, gh3-tre-luc cells, AC50 (uM) modified / 1000, Tox21_110001=Tox21_200522; viability, 1 nM T3 present, 24 h

SMILES	CC50 at 24 h [µM]
O=C1CCCCC1Cl (stereo not shown) [2-Chlorocyclohexanone]	> 90

same assay, conditions: rat, gh3-tre-luc cells, AC50 (uM) modified / 1000, Tox21_110001=Tox21_201292; viability, 1 nM T3 present, 24 h

SMILES	CC50 at 24 h [µM]
Cc1cc(-c2ccc(N)c(C)c2)ccc1N [3,3'-Dimethylbenzidine]	> 90

same assay, conditions: rat, gh3-tre-luc cells, AC50 (uM) modified / 1000, Tox21_110001=Tox21_202316; viability, 1 nM T3 present, 24 h

SMILES	CC50 at 24 h [µM]
COP(=S)(OC)SCN1C(=O)c2ccccc2C1=O [Phosmet]	> 90

same assay, conditions: rat, gh3-tre-luc cells, AC50 (uM) modified / 1000, Tox21_110001=Tox21_301206; viability, 1 nM T3 present, 24 h

SMILES	CC50 at 24 h [µM]
COP(=S)(NC(C)C)Oc1ccc(C)cc1[N+](=O)[O-] (stereo not shown) [Amiprofos-methyl]	> 90

same assay, conditions: rat, gh3-tre-luc cells, AC50 (uM) modified / 1000, Tox21_110001=Tox21_301840; viability, 1 nM T3 present, 24 h

SMILES	CC50 at 24 h [µM]
CC1C(=O)C[C@]2(C(C)C)C[C@H]12 (single isomer, unassigned; (-)) [(-)-alpha,beta-Thujone]	> 80

same assay, conditions: rat, gh3-tre-luc cells, AC50 (uM) modified / 1000, Tox21_110001=Tox21_301901; viability, 1 nM T3 present, 24 h

SMILES	CC50 at 24 h [µM]
CCCN(CCC)c1c([N+](=O)[O-])cc(S(C)(=O)=O)cc1[N+](=O)[O-] [Nitralin]	> 90

same assay, conditions: rat, gh3-tre-luc cells, AC50 (uM) modified / 1000, Tox21_110001=Tox21_302237; viability, 1 nM T3 present, 24 h

SMILES	CC50 at 24 h [µM]
Cc1c([N+](=O)[O-])cc2c(c1[N+](=O)[O-])C(C)(C)CC2(C)C [1,1,3,3,5-Pentamethyl-4,6-dinitro-2,3-dihydro-1H-indene]	74.8

same assay, conditions: rat, gh3-tre-luc cells, AC50 (uM) modified / 1000, Tox21_110001=Tox21_302252; viability, 1 nM T3 present, 24 h

SMILES	CC50 at 24 h [µM]
O=C(NCc1cccnc1)Nc1ccc([N+](=O)[O-])cc1 [Pyrinuron]	81.3
